Format in all cases: cell-based
The test system of one experiment is COLO205 (colon). The experiment is described as follows: Inhibition of cell proliferation, CellTiter-Glo, COLO205. The following applies: Homo sapiens, COLO 205, 72 h. In short, it runs like this: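 Exponentially growing COLO205 cells in medium with 10% FBS were plated below 2000 cells/well at 37 °C, 5% CO2. Untreated wells served as controls.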
(In general: In ATP-based viability assays light output follows the ATP content of the culture.)

In experiment [1] the target is T1, human IGF-1R (NIH-3T3 cells over expressing human IGF-1R) (Homo sapiens, UniProt P08069).
T1 construct: expressed in transfected cells; host or cells: NIH-3T3 (mouse fibroblasts)
In words: IGF-1R cellular autophosphorylation (DELFIA). Particulars: IGF-1 stimulated. In short, it runs like this:
(§1)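 Receptor-overexpressing NIH-3T3, 10% FBS, 37 °C; cpd 30 uM–1.5 nM × 2 h; stim IGF-1 30 ng/mL (IGF-1R) or insulin 3 ug/mL (IR), 15 min; lysate DELFIA, Eu anti-pTyr; % of stimulated signal.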

For experiment [2], the target named is T2, IR (NIH-3T3 cells over expressing human IGF-1R or IR) (Homo sapiens, UniProt P06213).
T2 construct: expressed in transfected cells; host or cells: NIH-3T3 (mouse fibroblasts)
In words: IR cellular autophosphorylation (DELFIA). The following applies: NIH-3T3 cells over expressing IR, insulin stimulated. Summed up: as §1

Bounds are passed on as bounds.

T1 sequence (P08069 31-1367): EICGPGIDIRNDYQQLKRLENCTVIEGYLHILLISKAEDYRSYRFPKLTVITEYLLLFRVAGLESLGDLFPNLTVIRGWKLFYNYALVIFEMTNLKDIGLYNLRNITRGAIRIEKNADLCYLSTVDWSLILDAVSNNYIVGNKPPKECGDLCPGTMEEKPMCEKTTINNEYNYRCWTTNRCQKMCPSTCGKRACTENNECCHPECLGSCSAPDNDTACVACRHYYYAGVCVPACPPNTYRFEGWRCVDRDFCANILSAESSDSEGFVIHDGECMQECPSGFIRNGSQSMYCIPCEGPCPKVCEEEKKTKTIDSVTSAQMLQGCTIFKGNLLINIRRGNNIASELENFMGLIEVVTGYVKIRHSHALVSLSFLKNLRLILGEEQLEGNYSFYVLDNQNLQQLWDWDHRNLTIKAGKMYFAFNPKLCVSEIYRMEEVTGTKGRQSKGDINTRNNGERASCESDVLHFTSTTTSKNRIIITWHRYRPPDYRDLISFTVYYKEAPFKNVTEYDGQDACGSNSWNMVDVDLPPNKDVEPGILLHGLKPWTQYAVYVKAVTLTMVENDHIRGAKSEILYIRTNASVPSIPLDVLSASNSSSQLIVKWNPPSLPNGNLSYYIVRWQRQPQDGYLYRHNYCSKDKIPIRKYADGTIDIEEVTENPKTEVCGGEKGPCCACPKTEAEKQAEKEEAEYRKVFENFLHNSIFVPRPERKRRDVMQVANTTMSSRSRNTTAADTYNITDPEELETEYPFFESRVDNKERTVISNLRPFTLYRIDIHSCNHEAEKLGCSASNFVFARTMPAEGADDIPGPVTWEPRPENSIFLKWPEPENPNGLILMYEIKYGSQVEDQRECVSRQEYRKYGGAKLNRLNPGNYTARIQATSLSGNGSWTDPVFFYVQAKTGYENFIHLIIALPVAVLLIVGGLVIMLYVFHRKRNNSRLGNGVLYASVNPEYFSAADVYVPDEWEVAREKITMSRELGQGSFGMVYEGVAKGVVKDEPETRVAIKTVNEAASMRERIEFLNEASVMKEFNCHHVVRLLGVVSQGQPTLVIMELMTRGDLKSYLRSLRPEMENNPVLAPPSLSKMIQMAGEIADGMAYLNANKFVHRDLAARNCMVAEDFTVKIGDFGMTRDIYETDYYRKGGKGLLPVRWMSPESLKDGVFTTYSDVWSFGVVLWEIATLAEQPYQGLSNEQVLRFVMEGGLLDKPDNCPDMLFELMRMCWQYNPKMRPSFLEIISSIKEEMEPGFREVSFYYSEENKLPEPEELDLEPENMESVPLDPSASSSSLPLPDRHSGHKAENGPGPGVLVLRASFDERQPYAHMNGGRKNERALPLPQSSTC
T2 sequence (P06213 28-1382): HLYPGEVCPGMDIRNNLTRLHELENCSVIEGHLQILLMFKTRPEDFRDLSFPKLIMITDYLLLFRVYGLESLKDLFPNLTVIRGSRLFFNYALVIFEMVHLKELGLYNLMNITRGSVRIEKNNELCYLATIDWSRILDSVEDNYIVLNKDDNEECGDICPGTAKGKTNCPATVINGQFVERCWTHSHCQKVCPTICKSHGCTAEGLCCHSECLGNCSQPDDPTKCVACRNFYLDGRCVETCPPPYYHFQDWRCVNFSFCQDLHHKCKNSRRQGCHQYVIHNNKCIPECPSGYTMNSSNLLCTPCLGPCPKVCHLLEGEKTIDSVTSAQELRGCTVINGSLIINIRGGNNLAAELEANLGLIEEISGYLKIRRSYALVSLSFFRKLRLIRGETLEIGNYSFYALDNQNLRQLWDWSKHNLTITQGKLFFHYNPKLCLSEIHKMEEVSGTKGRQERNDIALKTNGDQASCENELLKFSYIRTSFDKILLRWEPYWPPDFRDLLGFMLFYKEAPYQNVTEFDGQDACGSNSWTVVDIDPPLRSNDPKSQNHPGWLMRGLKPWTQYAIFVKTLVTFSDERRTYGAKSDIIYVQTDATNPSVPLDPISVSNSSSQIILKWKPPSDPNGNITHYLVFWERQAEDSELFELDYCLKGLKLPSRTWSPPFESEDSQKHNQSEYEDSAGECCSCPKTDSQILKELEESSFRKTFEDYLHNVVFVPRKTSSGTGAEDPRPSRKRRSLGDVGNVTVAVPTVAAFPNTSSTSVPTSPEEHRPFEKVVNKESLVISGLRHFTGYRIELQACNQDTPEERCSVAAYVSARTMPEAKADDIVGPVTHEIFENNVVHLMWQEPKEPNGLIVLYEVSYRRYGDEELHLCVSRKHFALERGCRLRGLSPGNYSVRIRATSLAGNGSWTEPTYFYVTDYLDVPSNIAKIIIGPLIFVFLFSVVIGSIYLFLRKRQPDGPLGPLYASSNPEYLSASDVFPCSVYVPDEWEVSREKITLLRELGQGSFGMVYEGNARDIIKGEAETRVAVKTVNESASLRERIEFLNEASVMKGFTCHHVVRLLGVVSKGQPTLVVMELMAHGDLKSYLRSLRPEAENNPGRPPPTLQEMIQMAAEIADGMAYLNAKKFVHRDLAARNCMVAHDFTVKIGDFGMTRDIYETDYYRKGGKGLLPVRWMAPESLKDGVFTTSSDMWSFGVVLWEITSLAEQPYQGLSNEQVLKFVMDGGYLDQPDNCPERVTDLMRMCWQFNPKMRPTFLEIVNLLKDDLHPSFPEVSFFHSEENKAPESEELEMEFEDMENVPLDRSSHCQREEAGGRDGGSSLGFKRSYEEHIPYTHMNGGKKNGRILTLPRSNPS

Regarding `COc1cc([C@H]2CC[C@@H](N3CCN(CCS(C)(=O)=O)CC3)CC2)ccc1Nc1nccc(-c2c(-c3cccc(C(=O)Nc4c(F)cccc4F)c3)nc3ccccn23)n1` [Example 93, N-(2,6-difluorophenyl)-3-[3-(2-{[2-(methyloxy)-4-(cis-4-{4-[2-(methylsulfonyl)-ethyl]-1-piperazinyl}cyclohexyl)phenyl]amino]-4-pyrimidinyl)imidazo[1,2-a]pyridin-2-yl]benzamide], the IC50 (as a rule, the concentration that inhibits the measured activity by half) is 0.25 to 1 µM with COLO205 (colon), less than 0.1 µM in experiment [1] and less than 0.1 µM in experiment [2].
With `COc1ccn2c(-c3ccnc(Nc4ccc(N5CCC(N6CCN(CCF)CC6)CC5)cc4OC)n3)c(-c3cccc(C(=O)Nc4c(F)cccc4F)c3)nc2c1` [Example 62, N-(2,6-difluorophenyl)-3-[3-(2-{[4-{4-[4-(2-fluoroethyl)-1-piperazinyl]-1-piperidinyl}-2-(methyloxy)phenyl]amino}-4-pyrimidinyl)-7-(methyloxy)imidazo[1,2-a]pyridin-2-yl]benzamide], the values for the IC50 (with COLO205 (colon); in experiment [1]; in experiment [2]) were 0.25 to 1 µM, less than 0.1 µM and less than 0.1 µM, respectively.
On to `COc1cc(N2CCC(O)CC2)ccc1Nc1nccc(-c2c(-c3ccc(OC)c(C(=O)Nc4c(F)cccc4F)c3)nc3ccccn23)n1` [Example 122, N-(2,6-difluorophenyl)-5-[3-(2-{[4-(4-hydroxy-1-piperidinyl)-2-(methyloxy)phenyl]amino}-4-pyrimidinyl)imidazo[1,2-a]pyridin-2-yl]-2-(methyloxy)benzamide], for which the IC50 with COLO205 (colon) is less than 0.25 µM; in experiment [1] it was less than 0.1 µM; in experiment [2], less than 0.1 µM.
For `COc1ccn2c(-c3ccnc(Nc4cccc(OCCN(C)C)c4)n3)c(-c3cccc(C(=O)Nc4c(F)cccc4F)c3)nc2c1` [Example 17, N-(2,6-difluorophenyl)-3-[3-{2-[(3-{[2-(dimethylamino)ethyl]oxy}phenyl)amino]-4-pyrimidinyl}-7-(methyloxy)imidazo[1,2-a]pyridin-2-yl]benzamide], the IC50 in the experiment on COLO205 (colon) is 0.25 to 1 µM; in experiment [1], 0.1 to 0.5 µM; in experiment [2] it was greater than 0.5 µM.
The like results for `CCOc1cc(N2CCN(CCS(C)(=O)=O)CC2)ccc1Nc1nccc(-c2c(-c3cccc(C(=O)Nc4c(F)cccc4F)c3)nc3ccccn23)n1` [Example 145, N-(2,6-difluorophenyl)-3-(3-{2-[(2-(ethyloxy)-4-{4-[2-(methylsulfonyl)ethyl]-1-piperazinyl}phenyl)amino]-4-pyrimidinyl}imidazo[1,2-a]pyridin-2-yl)benzamide] were, in that order, 0.25 to 1 µM, 0.1 to 0.5 µM and less than 0.1 µM.
In the case of `COc1cc(N2CCC(N3CCCCC3)CC2)ccc1Nc1nccc(-c2c(-c3ccc(OC)c(C(=O)Nc4c(F)cccc4F)c3)nc3ccccn23)n1` [Example 23, 5-[3-(2-{[4-(1,4′-bipiperidin-1-yl)-2-(methyloxy)phenyl]amino}-4-pyrimidinyl)imidazo[1,2-a]pyridin-2-yl]-N-(2,6-difluorophenyl)-2-(methyloxy)benzamide], the IC50 with COLO205 (colon) is less than 0.25 µM; in experiment [1] it was less than 0.1 µM; in experiment [2], less than 0.1 µM.
Turning to `COc1cc([C@H]2CC[C@H](N3CCN(CCS(C)(=O)=O)CC3)CC2)ccc1Nc1nccc(-c2c(-c3cccc(C(=O)Nc4c(F)cccc4F)c3)nc3ccccn23)n1` [Example 94, N-(2,6-difluorophenyl)-3-[3-(2-{[2-(methyloxy)-4-(trans-4-{4-[2-(methylsulfonyl)-ethyl]-1-piperazinyl}cyclohexyl)phenyl]amino}-4-pyrimidinyl)imidazo[1,2-a]pyridin-2-yl]benzamide], the IC50 in the experiment on COLO205 (colon) is greater than 1 µM; in experiment [1], less than 0.1 µM; in experiment [2], 0.1 to 0.5 µM.
As for `COc1cc(CCCN2CCN(C)CC2)ccc1Nc1nccc(-c2c(-c3ccc(OC)c(C(=O)Nc4c(F)cccc4F)c3)nc3ccccn23)n1` [Example 142, N-(2,6-difluorophenyl)-2-(methyloxy)-5-{3-[2-({2-(methyloxy)-4-[3-(4-methyl-1-piperazinyl)propyl]phenyl}amino)-4-pyrimidinyl]imidazo[1,2-a]pyridin-2-yl}benzamide], the IC50 with COLO205 (colon) was 0.25 to 1 µM; in experiment [1], less than 0.1 µM; in experiment [2] it was less than 0.1 µM.
Consider `COc1cc(N2CCC(N3CCCCC3)CC2)c(F)cc1Nc1nccc(-c2c(-c3cccc(C(=O)Nc4c(F)cccc4F)c3)nc3ccccn23)n1` [Example 106, 3-[3-(2-{[4-(1,4′-bipiperidin-1′-yl)-5-fluoro-2-(methyloxy)phenyl]amino}-4-pyrimidinyl)imidazo[1,2-a]pyridin-2-yl]-N-(2,6-difluorophenyl)benzamide], for which the half-inhibitory concentration (IC50) in the experiment with COLO205 (colon) was 0.25 to 1 µM; in experiment [1] it was less than 0.1 µM; in experiment [2] it was less than 0.1 µM.
Take `COc1cc(N2CCC(N3CCSCC3)CC2)ccc1Nc1nccc(-c2c(-c3cccc(C(=O)Nc4c(F)cccc4F)c3)nc3ccccn23)n1` [Example 85, N-(2,6-difluorophenyl)-3-{3-[2-({2-(methyloxy)-4-[4-(4-thiomomholinyl)-1-piperidinyl]phenyl}amino)-4-pyrimidinyl]imidazo[1,2-a]pyridin-2-yl}benzamide]: the figures for the IC50 (in the experiment on COLO205 (colon); in experiment [1]; in experiment [2]) were 0.25 to 1 µM, 0.1 to 0.5 µM and 0.1 to 0.5 µM, respectively.
In the case of `COc1cc(CCCN2CCN(C)CC2)ccc1Nc1nccc(-c2c(-c3cccc(C(=O)Nc4c(F)cccc4F)c3)nc3ccccn23)n1` [Example 141, N-(2,6-difluorophenyl)-3-{3-[2-({2-(methyloxy)-4-[3-(4-methyl-1-piperazinyl)propyl]phenyl}amino)-4-pyrimidinyl]imidazo[1,2-a]pyridin-2-yl}benzamide], the IC50 in the experiment with COLO205 (colon) was 0.25 to 1 µM; in experiment [1], 0.1 to 0.5 µM; in experiment [2], 0.1 to 0.5 µM.
For the compound `COc1cc(N2CCC(N3CCC(O)CC3)CC2)ccc1Nc1nccc(-c2c(-c3ccc(OC)c(C(=O)Nc4c(F)cccc4F)c3)nc3ccccn23)n1` [Example 81, N-(2,6-difluorophenyl)-5-[3-(2-{[4-(4-hydroxy-1,4′-bipiperidin-1′-yl)-2-(methyloxy)phenyl]-amino}-4-pyrimidinyl)imidazo[1,2-a]pyridin-2-yl]-2-(methyloxy)benzamide], the IC50 with COLO205 (colon) is less than 0.25 µM; in experiment [1], less than 0.1 µM; in experiment [2], less than 0.1 µM.
Take `COc1cc(N2CCC(N3CCCCC3)CC2)ccc1Nc1nccc(-c2c(-c3cccc(C(=O)Nc4c(F)cccc4F)c3)nc3cc(C)ccn23)n1` [Example 18, 3-[3-(2-{[4-(1,4′-bipiperidin-1′-yl)-2-(methyloxy)phenyl]amino}-4-pyrimidinyl)-7-methylimidazo[1,2-a]pyridin-2-yl]-N-(2,6-difluorophenyl)benzamide]: the IC50 with COLO205 (colon) is 0.25 to 1 µM; in experiment [1] it was less than 0.1 µM; in experiment [2], 0.1 to 0.5 µM.
In the case of `COc1cc(N2CCC(N3CCCCCC3)CC2)ccc1Nc1nccc(-c2c(-c3cccc(C(=O)Nc4c(F)cccc4F)c3)nc3ccccn23)n1` [Example 50, N-(2,6-difluorophenyl)-3-[3-(2-{[4-[4-(hexahydro-1H-azepin-1-yl)-1-piperidinyl]-2-(methyloxy)phenyl]amino}-4-pyrimidinyl)imidazo[1,2-a]pyridin-2-yl]benzamide], the values for the IC50 (with COLO205 (colon); in experiment [1]; in experiment [2]) were 0.25 to 1 µM, less than 0.1 µM and less than 0.1 µM, respectively.
In the case of `COc1cc(-c2nnc(CN(C)C)o2)ccc1Nc1nccc(-c2c(-c3ccc(OC)c(C(=O)Nc4c(F)cccc4F)c3)nc3ccccn23)n1` [Example 26, N-(2,6-difluorophenyl)-5-[3-(2-{[4-{5-[(dimethylamino)methyl]-1,3,4-oxadiazol-2-yl}-2-(methyloxy)phenyl]amino}-4-pyrimidinyl)imidazo[1,2-a]pyridin-2-yl]-2-(methyloxy)benzamide], the figures for the half-inhibitory concentration (IC50) (with COLO205 (colon); in experiment [1]; in experiment [2]) were 0.25 to 1 µM, less than 0.1 µM and greater than 0.5 µM, respectively.
Consider `CCOc1cc(N2CCN(C3CCN(CCS(C)(=O)=O)CC3)CC2)ccc1Nc1nccc(-c2c(-c3cccc(C(=O)Nc4c(F)cccc4F)c3)nc3ccccn23)n1` [Example 92, N-(2,6-difluorophenyl)-3-[3-(2-{[2-(ethyloxy)-4-(4-{1-[2-(methylsulfonyl)ethyl]-4-piperidinyl}-1-piperazinyl)phenyl]amino]-4-pyrimidinyl)imidazo[1,2-a]pyridin-2-yl]benzamide], for which the IC50 with COLO205 (colon) is less than 0.25 µM; in experiment [1], less than 0.1 µM; in experiment [2] it was less than 0.1 µM.
As to `COc1cc(N2CCC(N3CCCC3)CC2)ccc1Nc1nccc(-c2c(-c3cccc(C(=O)Nc4c(F)cccc4F)c3)nc3ccccn23)n1` [Example 78, N-(2,6-difluorophenyl)-3-{3-[2-({2-(methyloxy)-4-[4-(1-pyrrolidinyl)-1-piperidinyl]-phenyl}amino)-4-pyrimidinyl]imidazo[1,2-a]pyridin-2-yl}benzamide], the 50% inhibitory concentration (IC50) was less than 0.25 µM in the experiment on COLO205 (colon), less than 0.1 µM in experiment [1] and less than 0.1 µM in experiment [2].
Consider `COc1ccc(-c2nc3cc(C)ccn3c2-c2ccnc(Nc3cccc(OCCN(C)C)c3)n2)cc1C(=O)Nc1c(F)cccc1F` [Example 2, N-(2,6-difluorophenyl)-5-(3-{2-[(3-{[2-(dimethylamino)ethyl]oxy}phenyl)amino]-4-pyrimidinyl}-7-methylimidazo[1,2-a]pyridin-2-yl)-2-(methyloxy)benzamide], for which the IC50 with COLO205 (colon) is 0.25 to 1 µM; in experiment [1], greater than 0.5 µM; in experiment [2], greater than 0.5 µM.
